Reference: article PMC5833756, “A novel ruthenium complex with xanthoxylin induces S-phase arrest and causes ERK1/2-mediated apoptosis in HepG2 cells through a p53-independent pathway” (Cell Death & Disease, 2018)
Like-named read-outs stand apart in the source and are kept apart here. Marks after values point to notes of the source that are not given here.

Legend:
HCT116 = assay type: cell-based, human
HepG2 = assay type: cell-based, human
HSC-3 = assay type: cell-based, human
SCC-4 = assay type: cell-based, human
SCC-9 = assay type: cell-based, human
SCC-15 = assay type: cell-based, human
SCC-25 = assay type: cell-based, human
ACP-02 = assay type: cell-based, human
ACP-03 = assay type: cell-based, human
K-562 = assay type: cell-based, human
B16-F10 = assay type: cell-based, mouse
HaCAT = assay type: cell-based; conditions: HaCAT (human keratinocyte, non-cancer), 72 h
PBMC = assay type: cell-based; conditions: PBMC (human peripheral blood mononuclear cells, non-cancer), 72 h
[1] = system: multicellular spheroids formed from HepG2 cells; assay: 3D multicellular spheroid culture, alamar blue; assay type: cell-based, human; conditions: Homo sapiens; HepG2 3D spheroids, 72 h
Experimental: HepG2 cells were cultivated in 3D multicellular spheroids. Briefly, 100 μL of cell solution (0.5 × 10^6 cells/mL) was added to a 96-well plate with a cell-repellent surface (Greiner Bio-One, Kremsmünster, Austria) and cultured in complete medium plus 3% Matrigel (BD Biosciences, San Jose, CA, USA). Spheroids with stable structures formed after three days. Then, the spheroids were exposed to a range of drug concentrations for 72 h. The negative control received the vehicle that was used for diluting the complex tested. In the end of the experiment, morphological changes were examined by light microscopy (Olympus BX41, Tokyo, Japan) using Image-Pro software (Media Cybernetics, Inc. Silver Spring, USA), and cell viability was quantified by alamar blue assay as described above.

WT SV40 MEF = assay type: cell-based, mouse; conditions: Mus musculus, 72 h
BAD KO SV40 MEF = assay type: cell-based, mouse; conditions: Mus musculus, 72 h
HepG2 cells [2] = assay: Trypan blue exclusion assay; assay type: cell-based, human; conditions: HepG2, 24 h; DOX 2 µM, OXA 10 µM
calf thymus DNA = assay: DNA intercalation assay (ethidium bromide displacement); assay type: binding; conditions: 20 μM, cell-free, 15 min
Experimental: DNA intercalation was assessed by examining the ability of the complex to displace ethidium bromide from ctDNA (Sigma-Aldrich)[36]. […] After a 15 min of incubation at room temperature, fluorescence was measured using the excitation and emission wavelengths of 320 nm and 600 nm, respectively, using the Spectramax Microplate Reader (Molecular Devices).

HepG2 cells [3] = assay type: cell-based, human; conditions: DOX 2 µM, OXA 10 µM, RCX 12 µM
Experimental: Briefly, the cells were harvested in a permeabilization solution containing 0.1% Triton X-100, 2 µg/mL PI, 0.1% sodium citrate and 100 µg/mL RNAse (all from Sigma-Aldrich) and incubated in the dark for 15 min at room temperature. Finally, cell fluorescence was measured by flow cytometry with a BD LSRFortessa cytometer using BD FACSDiva Software (BD Biosciences) and FlowJo Software 10 (FlowJo Lcc; Ashland, OR, USA). Ten thousand events were evaluated per experiment, and cellular debris was omitted from the analysis.

AGP-01 = AGP-01 (human ascitic gastric adenocarcinoma), 72 h
[4] = i.p. 21 days, DOX 0.3 mg/kg, 5-FU 10 mg/kg, RCX 2.5 mg/kg
[5] = peripheral blood, i.p. 21 days, DOX 0.3 mg/kg, 5-FU 10 mg/kg, RCX 2.5 mg/kg
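Throughout, for Final body weight: mice bearing subcutaneous HepG2 xenografts, given intraperitoneal doses once daily for 21 days, weighed at start and end, blood leukocytes counted by light microscopy on day 22.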
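Throughout, for Initial body weight: mice bearing subcutaneous HepG2 xenografts, given intraperitoneal doses once daily for 21 days, weighed at start and end, blood leukocytes counted by light microscopy on day 22.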
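Throughout, for Survival: mice bearing subcutaneous HepG2 xenografts, given intraperitoneal doses once daily for 21 days, weighed at start and end, blood leukocytes counted by light microscopy on day 22.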
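Throughout, for lung histopathological characteristics: mice bearing subcutaneous HepG2 xenografts, given intraperitoneal doses once daily for 21 days, weighed at start and end, blood leukocytes counted by light microscopy on day 22.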

For `COc1cccc2c1C(=O)c1c(O)c3c(c(O)c1C2=O)C[C@@](O)(C(=O)CO)C[C@@H]3O[C@H]1C[C@H](N)[C@H](O)[C@H](C)O1` [DOX, doxorubicin], the IC50 (HCT116; HCT-116, HCT116 (human colon carcinoma), 72 h) was 200 nM, the “selectivity index (SI)” value (HCT116; IC50 HaCAT / IC50 HCT116) was 0.5 and the “selectivity index (SI)” value (HCT116; IC50 MRC5 / IC50 HCT116) was 6.5. The “selectivity index (SI)” value (HCT116; IC50 PBMC / IC50 HCT116) was 26, the IC50 (HepG2; HepG2 (human hepatocellular carcinoma), monolayer, 72 h) was 1300 nM and the “selectivity index (SI)” value (HepG2; IC50 HaCAT / IC50 HepG2) was 0.1. The “selectivity index (SI)” value (HepG2; IC50 MRC5 / IC50 HepG2) was 1, the “selectivity index (SI)” value (HepG2; IC50 PBMC / IC50 HepG2) was 4 and the IC50 (HSC-3; HSC-3 (human oral squamous cell carcinoma), 72 h) was 400 nM. For the same compound, the “selectivity index (SI)” value (HSC-3; IC50 HaCAT / IC50 HSC-3) was 0.3, the “selectivity index (SI)” value (HSC-3; IC50 MRC5 / IC50 HSC-3) was 3.3 and the “selectivity index (SI)” value (HSC-3; IC50 PBMC / IC50 HSC-3) was 13. For the same compound, the “selectivity index (SI)” value (SCC-4; IC50 HaCAT / IC50 SCC-4) was 0.1, the “selectivity index (SI)” value (SCC-4; IC50 MRC5 / IC50 SCC-4) was 0.6 and the “selectivity index (SI)” value (SCC-4; IC50 PBMC / IC50 SCC-4) was 2.5. For the same compound, the IC50 (SCC-4; SCC-4 (human oral squamous cell carcinoma), 72 h) was 2100 nM, the “selectivity index (SI)” value (SCC-9; IC50 HaCAT / IC50 SCC-9) was 0.04 and the “selectivity index (SI)” value (SCC-9; IC50 MRC5 / IC50 SCC-9) was 0.5. For the same compound, the “selectivity index (SI)” value (SCC-9; IC50 PBMC / IC50 SCC-9) was 2, the IC50 (SCC-9; SCC-9 (human oral squamous cell carcinoma), 72 h) was 2600 nM and the “selectivity index (SI)” value (SCC-15; IC50 HaCAT / IC50 SCC-15) was 0.1. For the same compound, the “selectivity index (SI)” value (SCC-15; IC50 MRC5 / IC50 SCC-15) was 0.9, the “selectivity index (SI)” value (SCC-15; IC50 PBMC / IC50 SCC-15) was 3.5 and the IC50 (SCC-15; SCC-15 (human oral squamous cell carcinoma), 72 h) was 1500 nM. The “selectivity index (SI)” value (SCC-25; IC50 HaCAT / IC50 SCC-25) was 0.1, the “selectivity index (SI)” value (SCC-25; IC50 MRC5 / IC50 SCC-25) was 1.3 and the “selectivity index (SI)” value (SCC-25; IC50 PBMC / IC50 SCC-25) was 5.2. The IC50 (SCC-25; SCC-25 (human oral squamous cell carcinoma), 72 h) was 1000 nM, the IC50 (ACP-02; ACP-02 (human gastric adenocarcinoma), 72 h) was 6800 nM and the “selectivity index (SI)” value (ACP-02; IC50 HaCAT / IC50 ACP-02) was 0.02. The “selectivity index (SI)” value (ACP-02; IC50 MRC5 / IC50 ACP-02) was 0.2, the “selectivity index (SI)” value (ACP-02; IC50 PBMC / IC50 ACP-02) was 0.8 and the IC50 (ACP-03; ACP-03 (human gastric adenocarcinoma), 72 h) was 2400 nM. The “selectivity index (SI)” value (ACP-03; IC50 HaCAT / IC50 ACP-03) was 0.04, the “selectivity index (SI)” value (ACP-03; IC50 MRC5 / IC50 ACP-03) was 0.5 and the “selectivity index (SI)” value (ACP-03; IC50 PBMC / IC50 ACP-03) was 2.2. The “selectivity index (SI)” value (K-562; IC50 HaCAT / IC50 K-562) was 0.1, the “selectivity index (SI)” value (K-562; IC50 MRC5 / IC50 K-562) was 1.3 and the “selectivity index (SI)” value (K-562; IC50 PBMC / IC50 K-562) was 5.2. For the same compound, the IC50 (K-562; K562, K-562 (human chronic myelogenous leukemia), 72 h) was 1000 nM, the “selectivity index (SI)” value (B16-F10; IC50 HaCAT / IC50 B16-F10) was 0.2 and the “selectivity index (SI)” value (B16-F10; IC50 MRC5 / IC50 B16-F10) was 2.2. The “selectivity index (SI)” value (B16-F10; IC50 PBMC / IC50 B16-F10) was 8.7, the IC50 (B16-F10; Mus musculus, B16-F10 (murine melanoma), 72 h) was 600 nM and the IC50 (HaCAT) was 100 nM. The IC50 (PBMC) was 5200 nM, the IC50 [1] was 18100 nM and the IC50 (WT SV40 MEF) was 40 nM. The IC50 (BAD KO SV40 MEF) was 410 nM, the “change in the number of viable cells” value (HepG2 cells [2]) was “reduced the number of viable cells” and the “displacement of ethidium bromide from ctDNA (fluorescence)” value (calf thymus DNA) was “significantly reduced the fluorescence intensity”. The “DNA content G0/G1” value (HepG2 cells [3]; HepG2, 12 h) was 51.9 ± 4.8%, the “DNA content G2/M” value (HepG2 cells [3]; HepG2, 12 h) was 22.6 ± 2.6% and the “DNA content S” value (HepG2 cells [3]; HepG2, 12 h) was 6.9 ± 0.1%. For the same compound, the “DNA content Sub-G0/G1” value (HepG2 cells [3]; HepG2, 12 h) was 13.4 ± 1.2 %, the “DNA content G0/G1” value (HepG2 cells [3]; HepG2, 24 h) was 20.9 ± 3.3 % and the “DNA content G2/M” value (HepG2 cells [3]; HepG2, 24 h) was 66.9 ± 5.5 %. The “DNA content S” value (HepG2 cells [3]; HepG2, 24 h) was 8.9 ± 2.3 %, the “DNA content Sub-G0/G1” value (HepG2 cells [3]; HepG2, 24 h) was 16.8 ± 4.3 % and the “DNA content G0/G1” value (HepG2 cells [3]; HepG2, 48 h) was 34.6 ± 2.7 %. For the same compound, the “DNA content G2/M” value (HepG2 cells [3]; HepG2, 48 h) was 31.1 ± 3.3 %, the “DNA content S” value (HepG2 cells [3]; HepG2, 48 h) was 9.1 ± 1.9% and the “DNA content Sub-G0/G1” value (HepG2 cells [3]; HepG2, 48 h) was 20.9 ± 1.0 %. For the same compound, the “DNA content G0/G1” value (HepG2 cells [3]; HepG2, 72 h) was 31.6 ± 5.1 %, the “DNA content G2/M” value (HepG2 cells [3]; HepG2, 72 h) was 16.3 ± 1.1% and the “DNA content S” value (HepG2 cells [3]; HepG2, 72 h) was 12.5 ± 1.1%. For the same compound, the “DNA content Sub-G0/G1” value (HepG2 cells [3]; HepG2, 72 h) was 46.6 ± 2.8 %, the IC50 (AGP-01) was 1900 nM and the lung histopathological characteristics (atelectasis, hemorrhage, inflammation, congestion, doxorubicin 0.3 mg/kg, RCX both doses, 21 days) was “more pronounced in the doxorubicin and RCX (both doses) groups than in the other groups”. The Initial body weight (before treatment, DOX 0.3 mg/kg, 5-FU 10 mg/kg, RCX 2.5 mg/kg groups) was 22.3 ± 0.4 g, the Final body weight [4] was 19.5 ± 0.6 g and the Survival [4] was 14/14. For the same compound, the “Differential leukocytes: Eosinophils” value [5] was 1.0%, the “Differential leukocytes: Lymphocytes” value [5] was 49.3% and the “Differential leukocytes: Monocytes” value [5] was 1.0%. For the same compound, the “Differential leukocytes: Neutrophils” value [5] was 48.8%, the Erythrocytes [5] was 8.9 ± 0.7 10^6cells/μL and the Total leukocytes [5] was 1.5 ± 0.2* 10^3cells/μL.
